Assay results from patent US12263248B2, “Compounds and compositions for intracellular delivery of therapeutic agents” (ModernaTX, Inc., priority 2018, dated 2025).

Key:
[1] = Particle size and polydispersity index of nanoparticle compositions (Zetasizer Nano ZS); format: physicochemical; settings: for PDI (Polydispersity index) / Size: lipid nanoparticle, ±SD within one assay run (Table 37)
Procedure, shortened: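 Zetasizer Nano ZS; samples in 1×PBS; read-out: particle size plus polydispersity index.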

[2] = Encapsulation efficiency of RNA (QUANT-IT RIBOGREEN RNA assay); format: physicochemical; settings: for % Encapsulation: lipid nanoparticle, ±SD within one assay run (Table 37); for % EE: Table 1D, for subcutaneous administration, # formulated with hEPO mRNA
Procedure, shortened: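 RiboGreen fluorescence (ex ~480, em ~520 nm) compared between intact samples and Triton X-100-lysed samples after 15 min at 37 °C in TE buffer, pH 7.5. Percent free RNA is the blank-corrected intact/disrupted ratio.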

[3] = Apparent (surface) pKa of the LNP formulation (TNS assay); format: physicochemical
Procedure, shortened: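 Fluorescence of TNS probe added to LNP samples (mRNA 0.04 mg/mL) was read across 21 buffers of pH about 3-12, triplicate per pH. The inflection point of the sigmoidal fluorescence-vs-pH curve, […], gives apparent pKa; method validated in 1× PBS and Tris/sucrose buffer.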

[4] = test system: luciferase (Luc) mRNA; experiment: Luc expression, whole body bioluminescence after intravenous administration to mice; format: in vivo; settings: for Total Flux 3 hours / Total Flux 6 hours / Total Flux 24 hours: Luc mRNA; for luciferase activity relative to MC3 LNP control: 0.5 mg/kg (mRNA dose)
Procedure, shortened: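 Bioluminescence, read as region-of-interest total flux at 3, 6 and 24 h, followed a single 0.5 mg/kg intravenous dose of Luc mRNA-loaded nanoparticles in mice (n=6). Luciferin substrate (200 μL, 15 mg/mL in PBS) was injected intraperitoneally into CD-1 mice 15 minutes ahead of each imaging point.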

[5] = test system: luciferase (Luc) mRNA; experiment: Luc expression in liver, lung, spleen and femur 6 hours after intravenous administration; format: in vivo; settings: mice, 0.5 mpk; for Total Flux Femur / Total Flux Liver / Total Flux Lung / Total Flux Spleen: intravenous
Procedure, shortened: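 LNP-formulated mRNA given IV to mice (n=3) at 0.5 mpk; at 6 h, bioluminescence imaged ex vivo 15 min after IP D-luciferin (15 mg/mL, 200 μL), organs imaged within 25 min. Values are total flux by region of interest.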

[6] = test system: IL-6, IP-10; experiment: Cytokine induction in mice upon intravenous administration; format: in vivo; parameters: Cytokine induction IL-6 / Cytokine induction IP-10: unit not given here; settings: 0.5 mpk, 6 hours; for Cytokine induction IL-6 / Cytokine induction IP-10: intravenous
Procedure, shortened: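 IL-6 and IP-10 concentrations determined 6 hours after a single intravenous 0.5 mpk dose of lipid nanoparticle formulation in mice, with MC3 and PBS as comparators.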

[7] = test system: sC5b-9; experiment: Complement activation in vitro (sC5b-9 levels); format: cell-based; settings: human cells contacted in vitro
Procedure: Complement activation assists in the clearance of pathogens from an organism. As it is undesirable that a subject's body recognize a nanoparticle composition as a foreign invader, low complement system activation upon administration of such a composition is preferred. The complex sC5b-9 is a marker for the activation of the complement system. Thus, human cells were contacted in vitro with nanoparticle compositions according to Table 1A and were evaluated for sC5b-9 levels.

[8] = Chemical stability of lipids in ethanol (lipid purity); format: physicochemical
Procedure: Ester linkages were previously reported to trigger metabolism by esterases in vivo. (See Fukami, T. et al. Drug Metab. Pharmacokinet. 2012, 27, 466-477, the content of which is incorporated by reference herein in its entirety). […] (See Maier M. A., Mol. Ther. 2013, 21, 1570-1578, the content of which is incorporated herein in its entirety) First, the chemical stability of the lipids was evaluated by measuring ethanol stability at room temperature and 37° C. (Table 39). […] LNPs formed with compound 138 were larger, with a surface pKa>7. […] Removal of one ester function (compound 136) afforded LNPs with improved physiochemical characteristics and lower LNP surface pKa.

[9] = test system: hEPO mRNA; experiment: hEPO expression after intravenous administration to rats; format: in vivo, rat; settings: Table 19B
Procedure: The expression of hEPO and cytokine induction in rats intravenously administered a nanoparticle composition at a dose of 2.0 mpk was measured at 6 h.
(§1) The expression of hEPO in rats intravenously administered a nanoparticle composition at a dose of 0.2 mpk or 2.0 mpk was measured at 6 hours. Table 16 summarize the ratio of hEPO expression levels using various nanoparticle compositions as compared to the hEPO expression level using MC3 formulation and the lipid levels in the liver measured 48 hours after administration, as described above. Tables 17 and 18 summarize the lipid levels in the liver and spleen measured 48 hours after administration of Compounds 28, 33, 53, and 54. Liver and spleen levels represent the average values calculated for 3 rats in each group. As is shown in Tables 17 and 18, less than 10% of Compounds 28, 33, 53, and 54 remained in the liver after 48 hours, while greater than 60% of MC3 remained.
The expression of hEPO induced by intravenous administration to rats of nanoparticle compositions at various doses was measured at 2, 4, 6, 8, 24, and 48 hour time points. FIGS. 3-6 respectively summarize the hEPO expression measured upon intravenous administration of formulations including Compounds 26, 18, 25, and MC3 to rat at various doses. The lipid levels of Compound 26 in the liver after 48 hours were about 19%.
(§2) 005781 The expression of hEPO and lipid levels in the liver and spleen in rats intravenously administered a nanoparticle composition at a dose of 0.2 mpk was measured at various time points. Compounds 18 and 25 were selected for comparison with MC3. Lipids were formulated according to the standard MC3 formulation described above. Rats were administered intravenously a single 0.2 mpk dose and expression monitored at 0.25, 0.5, 1, 2, 4, 8, 24, and 48 hours after administration.
Blood collection and analysis for hEPO. Blood was collected from mice or rats via the tail vein and hEPO concentrations were determined using a hEPO ELISA assay.

[10] = Residual lipid levels in rat liver and spleen (UPLC-MS); format: in vivo; settings: Table 19B, liver, 24 h
Procedure: At 48 h liver tissue was harvested for lipid quantification. To pre-weighed tissues, Milli-Q water was added (900 μL water per 100 mg tissue). Tissues were homogenized using an Omni probe homogenizer until uniform. 50 μL of samples and matrix calibration standards were aliquoted into a 96-well plate. 50 μL of blank matrix for matrix blanks and control blanks were aliquoted. 400 μL is spiking solution were manually added to all samples except matrix blanks. 400 μL of 50:50 ACN:IPA were manually added to matrix blanks. The plate was covered and the samples vortexed and centrifuged for 5 minutes at >3000 rpm. 200 μL of the samples were transferred into a clean 96-well plate for analysis. Samples were analyzed on a Waters Acquity UPLC using a Higgins Analytical Clipeus C8 column ([…], 30×2.1 mm) and a gradient of either 70-95% or 60-95% (Mobile Phase A: 5 mM ammonium formate in 50:50:1 H2O:MeOH:formic acid; Mobile Phase B: 5 mM ammonium formate in 100:1 MeOH:formic acid) over 1.3 min at 1.2 mL/min (column temperature 55° C.). Detection was based on electrospray ionization (ESI) in positive mode using a Sciex API5500 Mass Spectrometer.
as §1, §2

[11] = test system: hEPO mRNA; experiment: hEPO expression after subcutaneous administration to mice; format: in vivo, female CD-1 mice
Procedure: The effect of the lipids of the disclosure on protein expression upon subcutaneous administration was studied. Formulations containing lipids of the disclosure and an mRNA expressing luciferase or hEPO were administered subcutaneously to female CD-1 mice at 0.5 mpk. Expression levels were obtained via whole body luminescent imaging (BLI) at 3, 6 and 24 hours after injection and expression levels in liver, spleen and at the injection site were evaluated ex vivo after 24 hours. […] See also Tables 35 and 36, and FIGS. 19 and 27.
Table 36 summarizes the hEPO expression levels using various nanoparticle compositions of the disclosure as compared to the hEPO expression level using a formulation containing MC3 or Compound 18, following subcutaneous administration, as described above.

[12] = Lipid clearance: lipid level in mouse liver tissue (LC-MS/MS); format: in vivo; settings: for % Dose Remaining in Liver 6 h: Table 3D
[13] = Table 1A, lipid:DSPC:cholesterol:PEG-DMG 50:10:38.5:1.5 mol %
[14] = lipid nanoparticle, ±SD within one assay run (Table 37)
[15] = Table 1B, formulated with hEPO mRNA
[16] = Table 1D, for subcutaneous administration, # formulated with hEPO mRNA

Compound	PDI ([1]; Table 1A)	Size (nm) [1, 13]	EE (%) ([2]; Table 1A)	pKa ([3]; Table 1A)	PDI (Polydispersity index) [1]	Size [1]	% Encapsulation [2]	pKa [3, 14]	Lipid Purity ([8]; t = 0)	Lipid Purity ([8]; t = 96 h, 25° C.)	Total Flux 3 hours ([4]; mice, i.v., 0.5 mg/kg)	Total Flux 6 hours ([4]; mice, i.v., 0.5 mg/kg)	Total Flux 24 hours ([4]; mice, i.v., 0.5 mg/kg)	Total Flux Femur [5]	Total Flux Liver [5]	Total Flux Lung [5]	Total Flux Spleen [5]	Cytokine induction IL-6 [6]	Cytokine induction IP-10 [6]	luciferase activity relative to MC3 LNP control ([4]; mice, intravenous)	further results
CCCCCCCCCOC(=O)CCCCCCCN(CCCCCCCC(=O)OC(CCCCCCCC)CCCCCCCC)CCOC(C)=O [Compound 9, Heptadecan-9-yl 8-((2-acetoxyethyl)(8-(nonyloxy)-8-oxooctyl)amino) octanoate]	0.12	68.5 nm	75.7%	4.87							1.43E+08	3.46E+06	1.01E+06	2.57E+04	4.30E+05	2.56E+04	5.51E+04	317.45	366.53		flux at all timepoints measured ([4]; mice, i.v., 0.5 mg/kg, 3, 6 and 24 hour, in words): significantly lower flux; Flux in the spleen ([5]; i.v., in words): lowest; IL-6 induction ([6]; i.v., in words): highest; Fold increase in sC5b-9 levels versus saline [7]: 0.92; sC5b-9 levels relative to saline ([7]; in words): slightly decrease
CCCCCCCCCC(=O)OCCCCCCCN(CCO)CCCCCCCOC(=O)C(CCCCCCCC)CCCCCCCC [Compound 151, 7-((7-(Decanoyloxy)heptyl)(2-hydroxyethyl)amino)heptyl 2-octyldecanoate]	0.140	105.7 nm	87.86%	6.593							5.63E+10	5.68E+10	2.23E+09		4.72E+09	9.20E+06	9.27E+07				PDI [1, 16]: 0.13; Size (nm) [1, 16]: 77.6 nm; % EE [2]: 95.4%; Apparent pKa ([3]; Table 3G): 6.59; Lipid/MC3 AUC ([4]; Table 3D, intravenous): 3.7; AUC (p/s * h) ([4]; Table 3D, intravenous, Luc): 7.010E+011 p/s * h; Novel lipid/MC3 ratio, 6 hr. timepoint, i.v. ([4]; luciferase, intravenous, relative to MC3, Table 3G): 3.29; % Dose Remaining in Liver 6 h ([12]; second column (head also says 6 h), intravenous): <1%; % Dose Remaining in Liver 6 h ([12]; intravenous): <1%; hEPO expression Lipid/Compound 18 ratio, 6 hr. ([11]; 0.5 mpk, 6 hr.): 0.73; hEPO expression Lipid/Compound 18 ratio, AUC ([11]; 0.5 mpk, AUC): 0.71

The next lines start with results.

PDI ([1]; Table 1A)	Size (nm) [1, 13]	EE (%) ([2]; Table 1A)	pKa ([3]; Table 1A)	PDI (Polydispersity index) [1]	Size [1]	% Encapsulation [2]	pKa [3, 14]	Lipid Purity ([8]; t = 0)	Lipid Purity ([8]; t = 96 h, 25° C.)	Compound	Total Flux 3 hours ([4]; mice, i.v., 0.5 mg/kg)	Total Flux 6 hours ([4]; mice, i.v., 0.5 mg/kg)	Total Flux 24 hours ([4]; mice, i.v., 0.5 mg/kg)	Total Flux Femur [5]	Total Flux Liver [5]	Total Flux Lung [5]	Total Flux Spleen [5]	Cytokine induction IL-6 [6]	Cytokine induction IP-10 [6]	luciferase activity relative to MC3 LNP control ([4]; mice, intravenous)	further results
0.15	130.1 nm	95.24%	6.58	0.15 ± 0.07	130.1 ± 3.5 nm	95.2 ± 0.5%	6.58 ± 0.11	92.08%	92.07%	CCCCCCCCCOC(=O)CCCCCCCN(CCCCCCCC(=O)OC(CCCCCCCC)CCCCCCCC)CCN(C)C [Compound 14, Heptadecan-9-yl 8-((2-(dimethylamino)ethyl)(8-(nonyloxy)-8-oxooctyl)amino)octanoate]	4.43E+08	2.29E+09	1.39E+08	4.91E+06	1.91E+08	4.74E+06	1.92E+08	75.29	621.49	complete loss of delivery efficiency	Lipid Purity ([8]; t = 96 h, 37° C.): 91.90%
0.11	66.9 nm	97.81%								CCCCCCCCCOC(=O)CCCCCCCN(CCCCCCCC(=O)OC(CCCCCCCC)CCCCCCCC)CCCN/C(=N/S(C)(=O)=O)N(C)C [Compound 233, Heptadecan-9-yl (Z)-8-((3-(3,3-dimethyl-2-(methylsulfonyl)guanidino)propyl)(8-(nonyloxy)-8-oxooctyl)amino)octanoate]											PDI [1, 15]: 0.21; Size (nm) [1, 15]: 93.7 nm; PDI [1, 16]: 0.13; Size (nm) [1, 16]: 87.0 nm; EE (%) [2, 15]: 97.6%; % EE [2]: 97.5%; AUC (hEPO) [9]: 129000 pg·h/mL; Lipid/MC3 ([hEPO] ratio) ([9]; relative to MC3): 0.00664; Lipid/MC3 AUC ([9]; relative to MC3): 0.01; [hEPO] ([9]; species, dose and time not given): 9800 pg/mL; % dose remaining, liver, 24 h [10]: 0.07%; Novel lipid/MC3 expression ratio, 6 hr. time point, s.c. hEPO 0.5 mpk ([11]; relative to MC3): 0.03
				0.14 ± 0.05	93.8 ± 5.6 nm	96.9 ± 1.2%	6.79 ± 0.37	95.17%	95.15%	CCCCCCCCCOC(=O)CCCCCCCN(CCCCCCCC(=O)OC(CCCCCCCC)CCCCCCCC)CCCNC(=O)C(C)(C)COC [Compound 281, Heptadecan-9-yl 8-((3-(3-methoxy-2,2-dimethylpropanamido)propyl)(8-(nonyloxy)-8-oxooctyl)amino)octanoate]										two-fold lower	% dose remaining Mouse liver tissue, 24 h ([12]; CD-1 mouse liver 24 h after 0.5 mg/kg bolus dose mRNA, n = 5 ± S.D.): 66 ± 22%; original dose remaining in liver tissue 24 hours post dose ([12]; mice, intravenous): 66%; Lipid Purity ([8]; t = 96 h, 37° C.): 96.47%
